One data set deals with T1, CYP2A6 (Homo sapiens, UniProt P11509).
T1 construct: purchased Corning Gentest
T1 sequence (P11509 1-494): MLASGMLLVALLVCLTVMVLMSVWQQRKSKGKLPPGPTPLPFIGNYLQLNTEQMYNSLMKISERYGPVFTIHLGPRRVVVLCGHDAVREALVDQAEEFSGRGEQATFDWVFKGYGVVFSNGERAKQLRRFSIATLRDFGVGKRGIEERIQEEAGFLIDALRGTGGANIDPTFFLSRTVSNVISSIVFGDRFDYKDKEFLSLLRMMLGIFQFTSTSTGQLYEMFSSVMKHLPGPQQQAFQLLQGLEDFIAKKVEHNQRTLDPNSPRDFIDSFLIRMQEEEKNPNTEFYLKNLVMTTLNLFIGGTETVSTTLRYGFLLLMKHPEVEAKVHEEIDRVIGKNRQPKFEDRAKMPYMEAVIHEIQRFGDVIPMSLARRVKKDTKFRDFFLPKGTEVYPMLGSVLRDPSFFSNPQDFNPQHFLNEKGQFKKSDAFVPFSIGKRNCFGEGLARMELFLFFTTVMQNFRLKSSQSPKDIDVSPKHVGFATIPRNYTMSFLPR
Nature of the data set: AHC metabolism by recombinant cDNA-expressed CYP isoform. It is filed as in vitro ADME. As to conditions: 10 µM AHC, 10 pmol recombinant CYP, NGS, 37 °C, 60 min. The protocol: (§1) To identify the metabolic enzymes for AHC, 10 µM AHC was incubated with 10 pmol of human recombinant cDNA-expressed CYP isoforms (CYP1A1, 1A2, 2A6, 2B6, 2C8, 2C9, 2C19, 2D6, 2E1, 3A4, and 3A5) in the presence of 0.1 M potassium phosphate buffer (pH 7.4). The reaction was initiated by adding 100 µL of NGS at 37 °C for 60 min. Then, the mixture was suspended by adding 400 µL of ice-cold 100% ACN. Following centrifugation at 15,700× g for 10 min at 4 °C, the supernatant was transferred to a new tube and evaporated using a speed-vacuum concentrator. Next, the dried sample was diluted with 100 µL of 20% MeOH containing 0.1% formic acid, and a 5 µL aliquot was injected into a C18 column for LC–MS/MS analysis.
(§2) To identify the CYP isoforms involved in AHC metabolism, AHC (10 µM) was incubated with eleven cDNA-expressed recombinant CYP isoforms (CYP1A1, CYP1A2, CYP2A6, CYP2B6, CYP2C8, CYP2C9, CYP2C19, CYP2D6, CYP2E1, CYP3A4, and CYP3A5) in the presence of the NGS. […] However, the metabolites of AHC were not observed from reactions with other CYPs. Thus, in the metabolism of AHC in HLMs, CYP3A4 was involved as the main enzyme, and four types of metabolites were generated.

For another data set, the target named is T2, CYP2B6 (Homo sapiens, UniProt P20813).
T2 construct: purchased Corning Gentest
T2 sequence (P20813 1-491): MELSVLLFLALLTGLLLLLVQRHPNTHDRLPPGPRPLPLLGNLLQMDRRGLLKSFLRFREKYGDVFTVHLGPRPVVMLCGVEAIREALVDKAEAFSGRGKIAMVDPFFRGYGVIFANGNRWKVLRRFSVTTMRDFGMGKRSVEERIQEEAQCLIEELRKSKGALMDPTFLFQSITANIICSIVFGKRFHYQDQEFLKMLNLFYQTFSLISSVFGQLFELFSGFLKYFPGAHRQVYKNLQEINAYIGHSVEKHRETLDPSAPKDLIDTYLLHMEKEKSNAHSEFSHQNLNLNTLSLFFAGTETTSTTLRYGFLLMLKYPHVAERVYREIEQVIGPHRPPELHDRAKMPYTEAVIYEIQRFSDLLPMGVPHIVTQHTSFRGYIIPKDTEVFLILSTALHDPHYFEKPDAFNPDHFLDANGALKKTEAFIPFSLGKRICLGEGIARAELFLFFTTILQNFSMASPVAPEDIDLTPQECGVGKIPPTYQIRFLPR
The data set is described as above. Type of data set: in vitro ADME. Particulars: 10 µM AHC, 10 pmol recombinant CYP, NGS, 37 °C, 60 min. The method, then:
as §1, §2

Results on 1 compound are retold here after PMC8400920, “Metabolism of Diterpenoids Derived from the Bark of Cinnamomum cassia in Human Liver Microsomes” (Pharmaceutics, 2021).

Take `CC(=O)O[C@@H]1[C@@H](C)CC[C@]2(O)[C@]3(C)CC(=O)O[C@]12[C@@]1(O)C(C)=C(C(C)C)C[C@@]31O` [AHC, anhydrocinnzeylanine]: the “metabolites of AHC from reaction with CYP2A6” value at CYP2A6 is given as “not observed”. In addition, the “metabolites of AHC from reaction with CYP2B6” value at CYP2B6 is listed as “not observed”.
